Laboratory results from patent publication US6828462B2, “Unsaturated 1-amino-alkylcyclohexane NMDA, 5HT3, and neuronal nicotinic receptor antagonists” (Merz Pharma GmbH & Co. KGAA, priority 2001, dated 2004).

What was measured:
NMDA receptors = target: T1, NMDA receptors (Rattus norvegicus, UniProt P35439); assay: Patch clamp, NMDA-induced currents in hippocampal neurones; type: cell-based
T1 construct: Patch clamp recordings were made from these neurones; endogenous in cells; host or cells: primary cultured hippocampal neurones from rat embryos (E20 to E21)

NR1a/2A receptors = target: T2, NR1a/2A receptors (Homo sapiens, UniProt Q05586+Q12879); assay: NMDA receptor blockade in Xenopus oocytes, two-electrode voltage clamp; type: cell-based; settings: Xenopus oocytes expressing NR1a/2A
T2 construct: expressed in transfected cells; host or cells: Xenopus laevis oocytes injected with subunit RNA
T2 sequence (Q12879 23-1464, other chains not shown): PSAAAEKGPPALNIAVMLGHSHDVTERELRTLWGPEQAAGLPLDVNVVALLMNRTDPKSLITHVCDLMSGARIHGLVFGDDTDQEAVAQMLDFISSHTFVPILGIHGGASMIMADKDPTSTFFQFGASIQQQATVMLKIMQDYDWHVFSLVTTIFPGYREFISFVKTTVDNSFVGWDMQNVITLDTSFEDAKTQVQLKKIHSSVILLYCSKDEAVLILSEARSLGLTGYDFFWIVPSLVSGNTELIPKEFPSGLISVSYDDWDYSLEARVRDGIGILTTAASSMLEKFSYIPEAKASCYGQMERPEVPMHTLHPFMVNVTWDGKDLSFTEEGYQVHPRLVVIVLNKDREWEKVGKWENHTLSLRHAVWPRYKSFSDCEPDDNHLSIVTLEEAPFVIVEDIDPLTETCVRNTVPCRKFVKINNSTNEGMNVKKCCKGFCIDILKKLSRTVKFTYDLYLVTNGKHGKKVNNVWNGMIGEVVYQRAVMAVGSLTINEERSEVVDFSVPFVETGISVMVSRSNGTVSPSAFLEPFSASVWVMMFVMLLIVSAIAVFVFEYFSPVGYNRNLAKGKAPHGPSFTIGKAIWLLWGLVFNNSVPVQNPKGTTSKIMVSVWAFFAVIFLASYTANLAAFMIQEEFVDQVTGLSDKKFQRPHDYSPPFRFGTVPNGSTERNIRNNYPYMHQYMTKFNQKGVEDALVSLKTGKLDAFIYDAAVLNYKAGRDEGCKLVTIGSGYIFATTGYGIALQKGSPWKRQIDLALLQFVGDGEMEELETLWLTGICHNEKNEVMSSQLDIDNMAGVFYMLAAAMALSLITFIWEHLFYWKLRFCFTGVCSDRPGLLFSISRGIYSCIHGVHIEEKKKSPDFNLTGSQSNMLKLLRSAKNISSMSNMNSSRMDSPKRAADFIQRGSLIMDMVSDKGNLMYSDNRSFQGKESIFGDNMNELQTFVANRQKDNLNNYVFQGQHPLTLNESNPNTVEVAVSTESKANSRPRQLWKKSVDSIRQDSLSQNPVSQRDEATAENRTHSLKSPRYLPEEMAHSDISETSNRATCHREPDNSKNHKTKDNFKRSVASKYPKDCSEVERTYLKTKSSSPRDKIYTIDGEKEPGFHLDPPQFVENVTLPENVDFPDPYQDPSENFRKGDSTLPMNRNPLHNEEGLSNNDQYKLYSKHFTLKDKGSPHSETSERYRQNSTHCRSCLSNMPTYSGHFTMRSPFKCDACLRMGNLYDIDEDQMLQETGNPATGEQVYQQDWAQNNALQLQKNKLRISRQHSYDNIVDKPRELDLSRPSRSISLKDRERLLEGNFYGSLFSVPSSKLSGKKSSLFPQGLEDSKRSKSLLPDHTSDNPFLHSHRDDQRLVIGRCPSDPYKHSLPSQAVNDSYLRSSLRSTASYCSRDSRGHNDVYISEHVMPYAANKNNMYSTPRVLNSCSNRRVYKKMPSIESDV
Protocol: Mature female Xenopus laevis were anaesthetized in 0.2% Tricaine on ice for 15 min prior to surgery. Oocytes were removed and incubated in 2 mg/ml collagenase (type II) in Ca^2+-free oocyte Ringer solution (82.5 mM NaCl, 2 mM KCl, 2 mM MgCl2, 5 mM HEPES, pH 7.5) for 30 min. at room temperature and washed thoroughly with OR-2 (100 mM NaCl, 2 mM KCl, 1 mM MgCl2, 2 mM CaCl2, 5 mM HEPES, pH 7.5). The remaining follicle cell layer was removed manually with fine forceps and the oocytes were kept in OR-2. The RNA was dissolved in DEPC-treated, sterile distilled water. RNA for the NMDA NR1a subunit was mixed 1:1 with RNA for the NR2A subunit. Likewise neuronal nicotinic α4 RNA was mixed 1:1 with RNA for the β2 subunit. […]
Only results from stable cells were accepted for inclusion in the final analysis i.e. showing at least 50% recovery of responses to NMDA following removal of the antagonist tested. […] All antagonists were assessed at steady-state blockade with 6 to 7 concentrations on at least 4 cells. […]
Kinetic experiments were performed by applying various concentrations of unsaturated amino-alkyl-cyclohexanes (normally 5 in a log 3 dosing regime) for 10-20 seconds in the continuous presence of glutamate (100 μM and glycine 10 μM) for 90-180 seconds in Xenopus oocytes expressing NR1a/2A receptors. […] Voltage-dependency was then determined by comparing the glutamate and glutamate plus antagonist curves. […]

[1] = system: maximal electroshock (MES) tonic convulsions; assay: Maximal electroshock (MES) test, anticonvulsive activity; type: in vivo, mice; settings: Mus musculus, ip; NMR female mice, i.p. 30 min before convulsions; read-out: MES ED50
Protocol: (§1) NMR female mice (18-28 g) housed 5 per cage were used for the maximal electroshock (MES) and motor impairment tests. All animals were kept with water and food ad libitum under a 12 hour light-dark cycle (light on at 6 a.m.) and at a controlled temperature (20±0.5C). All experiments were performed between 10 a.m. and 5 p.m. Tested agents were injected 30 min. i.p. before the induction of convulsions if not stated otherwise (see below). All compounds were dissolved in 0.9% saline.
(§2) The MES test was performed together with tests for myorelaxant action (traction reflex) and motor coordination (rotarod). For the traction reflex test mice were placed with their forepaws on a horizontal rod and were required to place all 4 paws on the wire within 10 seconds. To test ataxia (motor coordination) mice were placed on an accelerating rotarod and were required to remain on the rod for 1 minute. […] These tests were followed by MES (100 Hz, 0.5 second shock duration, 50 mA shock intensity, 0.9 ms impulse duration, Ugo Basile) applied through corneal electrodes. The presence of tonic convulsions was scored (tonic extension of hind paws with minimum angle to the body of 90). The aim was to obtain ED50s for all parameters scored (anticonvulsive activity and motor side effects) with use of the Litchfield Wilcoxon test for quantal dose responses. Division of the ED50 for side effects (ataxia or myorelaxation) by the ED50 for antagonism of electroshock convulsions was used as a therapeutic index (TI).
(§3) 4-7 doses of antagonists were tested in each of the in vivo tests (5-8 animals per dose) to allow calculation of graded ED50s according to probit analysis (Litchfield and Wilcoxon) with correction for 0% to 100% effects. ED50s are presented with 95% confidence limits (Cl). Pearson product moment correlation analysis (Sigma Stat, Jandel Scientific) was used to compare in vitro potencies and in vivo anticonvulsant activity.

[2] = Traction reflex test, myorelaxant action; type: in vivo, mice; settings: mouse, in vivo, ip; NMR female mice, i.p., traction reflex; read-out: Myorelaxation ED50
Protocol: as §1, §2, §3

[3] = system: myorelaxation (traction reflex); assay: Traction reflex test, myorelaxant action; type: in vivo, mice; settings: ED50 myorelaxation divided by ED50 MES
Protocol: as §1, §2, §3

[4] = Accelerating rotarod test, ataxia (motor coordination); type: in vivo, mice; settings: mouse, in vivo, ip; NMR female mice, accelerating rotarod
Protocol: as §1, §2, §3

ataxia (rotarod) = assay: as above; type: in vivo, mice; settings: ED50 ataxia divided by ED50 MES
Protocol: as §1, §2, §3

[5] = target: NMDA receptor ([3H]-(+)-MK-801 site) (Rattus norvegicus, UniProt P35439); assay: [3H]-(+)-MK-801 receptor binding, rat cortex membranes

IC50 (NMDA receptors; Table 1, mean, N=6, read-out: NMDA IC50): 3280 nM
use- and voltage-dependency of blockade (NMDA receptors; hippocampal neurones, NMDA-induced currents): clear use- and voltage-dependency
Steady-state inward current responses to NMDA (NMDA receptors; hippocampal neurones, NMDA 200 μM with glycine 1 μM at -70 mV): antagonized
IC50 (NR1a/2A receptors; glutamate 100 μM, glycine 10 μM, -70 mV): 1990 nM
Hill (NR1a/2A receptors; logistic fit of the concentration-blockade curve): 0.75
ED50 at 30 min [2]: 12.8 mg/kg
Ki [5]: 1180 nM
SMILES: C=CC1(N)CC(C)(C)CC(C)(C)C1 [MRZ 2/759, 1-Ethenyl-3,3,5,5-tetramethylcyclohexylamine]
ED50 [1]: 14.8 mg/kg
Therapeutic index (myorelaxation ED50 / MES ED50) [3]: 0.9
ED50 at 30 min [4]: 15 mg/kg
Therapeutic index (ataxia ED50 / MES ED50) (ataxia (rotarod)): 1.0
